US20260078120A1, “SUBSTITUTED PYRIDOPYRIMIDINONES” (MIRATI THERAPEUTICS, INC., priority 2022, published 2026)

How the values were obtained:
[1] = test system: SKBR3 (PI3Kα wild type) cells; experiment: CellTiter-Glo 2.0 luminescent cell viability assay, 72 hours, SKBR3 cells; format: cell-based; settings: Homo sapiens, SK-BR-3, 72 h, SKBR3 (PI3Kα wild type) cells, CellTiter-Glo, approximately 72 hours; read-out: SKBR3 (WT) Viability IC50
Summary of the method: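 Viability measured via CTG luminescence following roughly 72 hours of compound exposure at 37° C. Dosing used a 10 um starting concentration diluted 1:4 over 10 points; percent-of-vehicle data fitted with a variable-slope four-parameter model for IC50.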

[2] = test system: T47D (PI3Kα H1047R mutant) cells; experiment: CellTiter-Glo 2.0 luminescent cell viability assay, 72 hours, T47D cells; format: cell-based; settings: Homo sapiens, T47D, 72 h, T47D (PI3Kα H1047R mutant) cells, CellTiter-Glo, approximately 72 hours; read-out: T47D (H1047R mutant) Viability IC50
Summary of the method: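 Viability was measured by CellTiter-Glo 2.0 luminescence after approximately 72 h of compound exposure at 37° C. Plating was 1000 cells per well the day before dosing, with ten 1:4 dilutions from a 10 µM top concentration. Values as percent of vehicle were fitted by variable-slope log(inhibitor) regression to give IC50.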

Row | IC50 [1] [µM] | IC50 [2] [µM] | Structure (SMILES)
1 | > 10 | 4.38 | Cc1cc(C(C)Nc2ccccc2C(=O)O)c2nc(-c3ccc(Cl)cc3)cc(=O)n2c1 (stereo not drawn) [Example 11-396, 2-((1-(2-(4-chlorophenyl)-7-methyl-4-oxo-4H-pyrido[1,2-a]pyrimidin-9-yl)ethyl)amino)benzoic acid]
2 | > 10 | 0.0169 | Cc1cc([C@@H](C)Nc2ccccc2C(=O)O)c2nc(N3CCc4ccccc4C3)c(C)c(=O)n2c1 [Example 10-7, (R)-2-((1-(2-(3,4-dihydroisoquinolin-2(1H)-yl)-3,7-dimethyl-4-oxo-4H-pyrido[1,2-a]pyrimidin-9-yl)ethyl)amino)benzoic acid]
3 | > 10 | 0.285 | COC1CN(c2nc3c([C@@H](C)Nc4ccccc4C(=O)O)cc(C)cn3c(=O)c2C#N)C1 [Example 11-111, (R)-2-((1-(3-cyano-2-(3-methoxyazetidin-1-yl)-7-methyl-4-oxo-4H-pyrido[1,2-a]pyrimidin-9-yl)ethyl)amino)benzoic acid]
4 | > 10 | 3.91 | CC(=O)N1CC=C(c2cc(=O)n3cc(C)cc([C@@H](C)Nc4ccccc4C(=O)O)c3n2)CC1 [Example 11-379, (R)-2-((1-(2-(1-acetyl-1,2,3,6-tetrahydropyridin-4-yl)-7-methyl-4-oxo-4H-pyrido[1,2-a]pyrimidin-9-yl)ethyl)amino)benzoic acid]
5 | > 10 | 0.854 | Cc1cc([C@@H](C)Nc2ccccc2C(=O)O)c2nc(N3C[C@H](F)C[C@H](F)C3)c(C#N)c(=O)n2c1 [Example 11-48, 2-(((R)-1-(3-cyano-2-((3R,5S)-3,5-difluoropiperidin-1-yl)-7-methyl-4-oxo-4H-pyrido[1,2-a]pyrimidin-9-yl)ethyl)amino)benzoic acid]
6 | > 10 | 0.256 | Cc1cc([C@@H](C)Nc2ccccc2C(=O)O)c2nc(N3CCN(c4ccc(C(F)(F)F)cc4C#N)CC3C)c(C#N)c(=O)n2c1 (stereo partly drawn) [Example 11-78, 2-(((1R)-1-(3-cyano-2-(4-(2-cyano-4-(trifluoromethyl)phenyl)-2-methylpiperazin-1-yl)-7-methyl-4-oxo-4H-pyrido[1,2-a]pyrimidin-9-yl)ethyl)amino)benzoic acid]
7 | > 10 | > 10 | Cc1cc([C@@H](C)Nc2ccncc2C(=O)O)c2nc(N3Cc4ccccc4C3)c(C#N)c(=O)n2c1 [Example 11-274, (R)-4-((1-(3-cyano-2-(isoindolin-2-yl)-7-methyl-4-oxo-4H-pyrido[1,2-a]pyrimidin-9-yl)ethyl)amino)nicotinic acid]
8 | > 10 | 0.244 | Cc1cc([C@@H](C)Nc2ccccc2C(=O)O)c2nc(N3C4CC5CC(C4)CC3C5)c(C)c(=O)n2c1 [Example 11-29, (R)-2-((1-(2-(2-azaadamantan-2-yl)-3,7-dimethyl-4-oxo-4H-pyrido[1,2-a]pyrimidin-9-yl)ethyl)amino)benzoic acid]
9 | > 10 | 0.15 | Cc1cc([C@@H](C)Nc2ccc(C)nc2C(=O)O)c2nc(N3CCC(F)(F)CC3)c(C)c(=O)n2c1 [Example 11-46, (R)-3-((1-(2-(4,4-difluoropiperidin-1-yl)-3,7-dimethyl-4-oxo-4H-pyrido[1,2-a]pyrimidin-9-yl)ethyl)amino)-6-methylpicolinic acid]
10 | > 10 | 0.168 | Cc1cc([C@@H](C)Nc2ccc(F)cc2C(=O)O)c2nc(N3CCCCC3)c(C#N)c(=O)n2c1 [Example 11-293, (R)-2-((1-(3-cyano-7-methyl-4-oxo-2-(piperidin-1-yl)-4H-pyrido[1,2-a]pyrimidin-9-yl)ethyl)amino)-5-fluorobenzoic acid]
11 | > 10 | 0.248 | Cc1cc([C@@H](C)Nc2ccccc2C(=O)O)c2nc(N3CCN(c4cnn(C)c4)CC3)c(C)c(=O)n2c1 [Example 11-265, (R)-2-((1-(3,7-dimethyl-2-(4-(1-methyl-1H-pyrazol-4-yl)piperazin-1-yl)-4-oxo-4H-pyrido[1,2-a]pyrimidin-9-yl)ethyl)amino)benzoic acid]
12 | > 10 | 6.87 | Cc1cc(C(C)Nc2ccccc2C(=O)O)c2nc(-c3ccccn3)cc(=O)n2c1 (stereo not drawn) [Example 11-402, 2-((1-(7-methyl-4-oxo-2-(pyridin-2-yl)-4H-pyrido[1,2-a]pyrimidin-9-yl)ethyl)amino)benzoic acid]
13 | > 10 | 0.641 | Cc1cc([C@@H](C)Nc2ccccc2C(=O)O)c2nc(N3CCC4(C3)CC(F)(F)C4(F)F)c(C)c(=O)n2c1 (stereo partly drawn) [Example 11-436, 2-(((1R)-1-(3,7-dimethyl-4-oxo-2-(1,1,2,2-tetrafluoro-6-azaspiro[3.4]octan-6-yl)-4H-pyrido[1,2-a]pyrimidin-9-yl)ethyl)amino)benzoic acid]
14 | > 10 | 0.126 | Cc1cc([C@@H](C)Nc2ccccc2C(=O)O)c2nc(N3CC4CC4C3)c(C#N)c(=O)n2c1 (stereo partly drawn) [Example 11-223, 2-(((1R)-1-(2-(3-azabicyclo[3.1.0]hexan-3-yl)-3-cyano-7-methyl-4-oxo-4H-pyrido[1,2-a]pyrimidin-9-yl)ethyl)amino)benzoic acid]
15 | > 10 | 3.6 | Cc1cc([C@@H](C)Nc2ccccc2C(=O)O)c2nc(-c3c[nH]cn3)c(C)c(=O)n2c1 [Example 11-235, (R)-2-((1-(2-(1H-imidazol-4-yl)-3,7-dimethyl-4-oxo-4H-pyrido[1,2-a]pyrimidin-9-yl)ethyl)amino)benzoic acid]
16 | > 10 | 0.392 | Cc1c(N2Cc3ccccc3C2)nc2c([C@@H](C)Nc3ccccc3C(=O)O)cc(F)cn2c1=O [Example 11-290, (R)-2-((1-(7-fluoro-2-(isoindolin-2-yl)-3-methyl-4-oxo-4H-pyrido[1,2-a]pyrimidin-9-yl)ethyl)amino)benzoic acid]

The next lines start with the compound.

Row | Structure (SMILES) | IC50 [1] [µM] | IC50 [2] [µM]
17 | Cc1cc([C@@H](C)Nc2ccccc2C(=O)O)c2nc(N3C4CC3CN(c3ccc(C#N)cc3)C4)c(C#N)c(=O)n2c1 [Example 11-179, 2-(((1R)-1-(3-cyano-2-(3-(4-cyanophenyl)-3,6-diazabicyclo[3.1.1]heptan-6-yl)-7-methyl-4-oxo-4H-pyrido[1,2-a]pyrimidin-9-yl)ethyl)amino)benzoic acid] | > 10 | 1.53
18 | Cc1cc(C(C)Nc2ccccc2C(=O)O)c2nc(Oc3cccc(C#N)c3)cc(=O)n2c1 (stereo not drawn) [Example 11-340, 2-((1-(2-(3-cyanophenoxy)-7-methyl-4-oxo-4H-pyrido[1,2-a]pyrimidin-9-yl)ethyl)amino)benzoic acid] | > 10 | > 10
19 | Cc1cc([C@@H](C)Nc2ccccc2C(=O)O)c2nc(N3CCN(c4cn(C)nc4C#N)CC3)c(C)c(=O)n2c1 [Example 11-185, (R)-2-((1-(2-(4-(3-cyano-1-methyl-1H-pyrazol-4-yl)piperazin-1-yl)-3,7-dimethyl-4-oxo-4H-pyrido[1,2-a]pyrimidin-9-yl)ethyl)amino)benzoic acid] | > 10 | 0.123
20 | Cc1cc(C(C)Nc2ccccc2)c2nc(N3CCCCC3)c(C#N)c(=O)n2c1 (stereo not drawn) [Example 11-299, 7-methyl-4-oxo-9-(1-(phenylamino)ethyl)-2-(piperidin-1-yl)-4H-pyrido[1,2-a]pyrimidine-3-carbonitrile] | 9.32 | 9.25
21 | Cc1cc([C@@H](C)Nc2ccccc2C(=O)O)c2nc(N3CC4(CO)CCCC3C4)c(C)c(=O)n2c1 (stereo partly drawn) [Example 10-144, 2-(((1R)-1-(2-(1-(hydroxymethyl)-6-azabicyclo[3.2.1]octan-6-yl)-3,7-dimethyl-4-oxo-4H-pyrido[1,2-a]pyrimidin-9-yl)ethyl)amino)benzoic acid] | > 10 | 0.0913
22 | Cc1cc([C@@H](C)Nc2ccccc2C(=O)O)c2nc(N3CCN(c4ccccc4C#N)CC3)c(C#N)c(=O)n2c1 [Example 11-260, (R)-2-((1-(3-cyano-2-(4-(2-cyanophenyl)piperazin-1-yl)-7-methyl-4-oxo-4H-pyrido[1,2-a]pyrimidin-9-yl)ethyl)amino)benzoic acid] | > 10 | 0.368
23 | Cc1cc(C#N)c2nc(N3CCCCC3)cc(=O)n2c1 [Example 11-409, 7-methyl-4-oxo-2-(piperidin-1-yl)-4H-pyrido[1,2-a]pyrimidine-9-carbonitrile] | > 10 | > 10
24 | C#Cc1ccc(N[C@H](C)c2cc(C)cn3c(=O)cc(N4CCCCC4)nc23)c(C(=O)O)c1 [Example 11-232, (R)-5-ethynyl-2-((1-(7-methyl-4-oxo-2-(piperidin-1-yl)-4H-pyrido[1,2-a]pyrimidin-9-yl)ethyl)amino)benzoic acid] | > 10 | 3.28
25 | Cc1cc([C@@H](C)Nc2ccccc2C(=O)O)c2nc(N3CCC(n4cccn4)CC3)c(C)c(=O)n2c1 [Example 11-432, (R)-2-((1-(2-(4-(1H-pyrazol-1-yl)piperidin-1-yl)-3,7-dimethyl-4-oxo-4H-pyrido[1,2-a]pyrimidin-9-yl)ethyl)amino)benzoic acid] | > 10 | 0.122
26 | Cc1cc([C@@H](C)Nc2ccccc2C(=O)O)c2nc(N[C@@H](C)C3CC3)c(C)c(=O)n2c1 [Example 11-166, 2-(((R)-1-(2-(((S)-1-cyclopropylethyl)amino)-3,7-dimethyl-4-oxo-4H-pyrido[1,2-a]pyrimidin-9-yl)ethyl)amino)benzoic acid] | > 10 | 0.364
27 | Cc1cc([C@@H](C)Nc2ccc(Cl)nc2C(=O)O)c2nc(N3CCC(C)(C)CC3)c(C)c(=O)n2c1 [Example 11-279, (R)-6-chloro-3-((1-(2-(4,4-dimethylpiperidin-1-yl)-3,7-dimethyl-4-oxo-4H-pyrido[1,2-a]pyrimidin-9-yl)ethyl)amino)picolinic acid] | > 10 | 0.192
